In patent US10815197B2, “N-sulfonyl benzamides as voltage-gated sodium channel inhibitors” (SHANGHAI HAIYAN PHARMACEUTICAL TECHNOLOGY CO., LTD., priority 2016, dated 2020):
Where two headings read alike, the source gives them in different places.

Molecular target: T1, hNav1.7 (Homo sapiens, UniProt Q15858)
T1 construct: host or cells: CHO
Assay: Manual patch clamp experiment hNav1.7 (CHO-hNav1.7 stable cell line)
Assay type: cell-based
Details: for inhibition at 0.1 µM: read-out: Inhibition of Nav1.7 100 nM(%); for inhibition at 1 µM: read-out: Inhibition of Nav1.7 1000 nM(%); for inhibitory activity against Nav1.7 (in words): comparison from Table 1
Source text: Assay 1: Manual Patch Clamp Experiment of Sodium Ion (hNav1.7, hNav1.5 and hNaV1.8) and Calcium Ion (hCav3.2) Channels
hNav1.7, hNav1.5 Manual Patch Clamp Experiment:
Patch voltage clamp electrophysiology allows for the direct measurement and quantification of current block of voltage-gated sodium channels (NaV's), and allows the determination of the time and voltage-dependence of block which has been interpreted as differential binding to the resting, open and inactivated states of the sodium channel to reflect the compound's inhibitory or activating effects (Hille, B., Journal of General Physiology (1977), 69: 497-515).
Representative compounds of the present invention were subject to a manual patch clamp experiment and the purpose of this study was to test the effect of compounds on this ion channel current on a stable cell line transfected with a specific ion channel using a manual patch clamp method. The used stable cell lines CHO-hNav1.7 and HEK-hNav1.5 were from Genionics and WuXi Apptec (Shanghai) respectively.
Manual patch clamp experimental program is as follows:
(1) Preparation of solutions and compounds: The whole cell patch clamp technique was used to record hNav1.7 and hNav1.5 currents. In the experiment, the composition of extracellular fluid (mM): HEPES: 5, NaCl: 40, KCl: CaCl2: 1, MgCl2: 1, CdCl2: 0.1, TEA-Cl: 20. The pH was adjusted to 7.3 with NaOH and the osmotic pressure was adjusted to 310-320 mOsm with sucrose, filtered and stored at 4° C. The composition of the intracellular fluid (mM): HEPES: 10, NaCl: 10, CsOH: 5, CsF: 140, EGTA: 1. The pH was adjusted to 7.3 with CsOH and the osmotic pressure was adjusted to 280-290 mOsm with sucrose, filtered and stored at −20° C.
The positive control and the test compound were firstly dissolved in 100% DMSO (Sigma-Aldrich, D2650), configured as stock solution at a concentration (100 nM, 1000 nM).) The above stock solution was serially diluted with DMSO prior to the experiment, the solution was further diluted with extracellular solution to obtain the test solution of the desired concentration.
(2) Manual Patch Clamp Experiment: The cell suspension was added to a 35 mm petri dish and placed on an inverted microscope stage. The cells were perfused with an extracellular fluid and the flow rate was 1-2 mL/min after cell adherence. The glass microelectrode was prepared in two steps by a microelectrode puller with an inlet water resistance of 2-5 MΩ. A/D-D/A digital-analog conversion was performed by Digidata 1440 (Molecular Devices) and pCLAMP software (version 10.2, Molecular Devices) for stimulation and signal acquisition; the signal was amplified by patch clamp amplifier (Multiclamp 700B, Molecular Devices), and filtering is 4 KHz.
Two different voltage stimulation procedures were used in the hNav1.7 and hNav1.5 manual patch clamp experiments.
One is the inactivation stimulation program, the clamp potential is set at V1/2 of the corresponding channel, i.e., about 50% of the channels are inactivated, then the voltage is applied to −120 mV for 50 ms, then depolarized to −10 mV for 20 ms leading to sodium current, and finally returned to the clamp potential. This stimulation program can also be called channel state-dependent voltage stimulation program.
The other is the non-inactivation stimulation program, the clamp potential is maintained at −120 mV, voltage stimulation is given to −10 mV for 20 ms leading to sodium current, and finally returned to the clamp potential. That is, all channels have not experienced inactivation status, but activate directly from the resting state under the conditions of the stimulation program.
The time intervals of these two voltage stimulation programs were 10 s. The inhibitory effect of the compound was calculated by the change of the current before and after dosing, the IC50 value was fitted by the Hill equation.

T1 sequence (Q15858 whole entry): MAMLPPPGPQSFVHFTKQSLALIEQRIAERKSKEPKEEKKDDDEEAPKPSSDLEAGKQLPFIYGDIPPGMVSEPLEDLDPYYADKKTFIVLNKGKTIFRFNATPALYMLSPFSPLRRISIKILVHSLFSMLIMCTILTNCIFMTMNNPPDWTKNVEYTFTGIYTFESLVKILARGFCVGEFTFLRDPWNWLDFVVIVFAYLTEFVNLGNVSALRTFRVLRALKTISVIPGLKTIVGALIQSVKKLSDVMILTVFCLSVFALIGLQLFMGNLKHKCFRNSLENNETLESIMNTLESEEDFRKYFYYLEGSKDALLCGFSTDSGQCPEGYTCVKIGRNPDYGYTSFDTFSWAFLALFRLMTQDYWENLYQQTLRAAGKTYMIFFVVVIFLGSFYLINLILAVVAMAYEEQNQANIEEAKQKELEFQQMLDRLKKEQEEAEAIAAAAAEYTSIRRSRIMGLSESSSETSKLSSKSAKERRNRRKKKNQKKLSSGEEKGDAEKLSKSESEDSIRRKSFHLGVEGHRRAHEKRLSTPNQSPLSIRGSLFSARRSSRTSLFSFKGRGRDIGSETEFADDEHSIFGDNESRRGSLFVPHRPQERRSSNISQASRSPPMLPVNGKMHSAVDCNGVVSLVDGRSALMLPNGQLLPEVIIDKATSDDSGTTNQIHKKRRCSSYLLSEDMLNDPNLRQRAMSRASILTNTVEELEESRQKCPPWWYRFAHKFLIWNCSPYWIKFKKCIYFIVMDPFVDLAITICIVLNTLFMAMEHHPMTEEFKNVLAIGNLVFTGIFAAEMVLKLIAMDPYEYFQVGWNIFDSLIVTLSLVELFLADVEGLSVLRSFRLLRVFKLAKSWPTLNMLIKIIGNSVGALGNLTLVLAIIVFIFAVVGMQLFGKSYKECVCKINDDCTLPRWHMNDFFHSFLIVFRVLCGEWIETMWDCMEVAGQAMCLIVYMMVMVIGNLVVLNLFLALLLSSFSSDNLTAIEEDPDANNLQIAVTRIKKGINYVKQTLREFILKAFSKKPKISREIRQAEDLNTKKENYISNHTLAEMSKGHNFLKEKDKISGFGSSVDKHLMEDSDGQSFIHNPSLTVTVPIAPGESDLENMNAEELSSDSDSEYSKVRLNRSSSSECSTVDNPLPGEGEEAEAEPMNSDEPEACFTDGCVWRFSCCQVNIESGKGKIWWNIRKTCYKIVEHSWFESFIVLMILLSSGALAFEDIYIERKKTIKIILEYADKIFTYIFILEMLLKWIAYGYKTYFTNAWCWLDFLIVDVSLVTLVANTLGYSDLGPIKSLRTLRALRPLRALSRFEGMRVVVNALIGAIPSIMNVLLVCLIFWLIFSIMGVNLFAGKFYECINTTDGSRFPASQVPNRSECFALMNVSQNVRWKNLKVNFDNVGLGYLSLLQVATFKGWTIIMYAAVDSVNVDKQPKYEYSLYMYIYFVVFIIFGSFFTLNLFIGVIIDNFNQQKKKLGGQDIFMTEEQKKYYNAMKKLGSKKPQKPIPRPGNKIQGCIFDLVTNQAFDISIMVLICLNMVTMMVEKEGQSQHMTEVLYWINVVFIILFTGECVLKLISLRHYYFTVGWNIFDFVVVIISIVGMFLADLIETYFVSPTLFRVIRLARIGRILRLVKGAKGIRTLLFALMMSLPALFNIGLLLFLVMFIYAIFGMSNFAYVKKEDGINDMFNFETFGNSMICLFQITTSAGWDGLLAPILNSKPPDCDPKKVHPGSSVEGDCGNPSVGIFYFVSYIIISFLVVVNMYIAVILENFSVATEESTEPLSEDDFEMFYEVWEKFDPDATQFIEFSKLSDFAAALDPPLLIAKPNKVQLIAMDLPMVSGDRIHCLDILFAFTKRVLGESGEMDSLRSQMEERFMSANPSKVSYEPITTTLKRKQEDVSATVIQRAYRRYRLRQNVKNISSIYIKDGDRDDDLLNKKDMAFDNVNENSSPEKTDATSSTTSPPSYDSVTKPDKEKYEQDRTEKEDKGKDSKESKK

Row | Compound | inhibition at 0.1 µM (compound at 100 nM) | inhibition at 1 µM (compound at 1000 nM) | other results
1 | O=C(NS(=O)(=O)C1CC1)c1cc(Cl)c(CN2CCN(Cc3ccc(Cl)cc3)CC2)cc1F [Compound C6, reference compound] | 11.2% | 57.2% | –
2 | O=C(NS(=O)(=O)C1CC1)c1cc(C2CC2)c(CN2CCN(c3cc(Cl)cc(Cl)c3)CC2)cc1F [Compound Z-197] | – | – | inhibition at 0.1 µM: 83.6%; inhibition at 1 µM: 100%
3 | O=C(NS(=O)(=O)C1CC1)c1cc(Cl)c(CN2CCN(C(=O)c3ccc(Cl)cc3)CC2)cc1F [Compound C5, reference compound] | 17.2% | 36.8% | –
4 | O=C(NS(=O)(=O)C1CC1)c1cc(Cl)c(OC[C@H]2CCCN2Cc2ccc(Cl)cc2)cc1F [Compound C7, (R)-5-chloro-4-((1-(4-chlorobenzyl)pyrrolidin-2-yl)methoxy)-N-(cyclopropylsulfonyl), reference compound] | – | – | inhibition at 0.1 µM: 31.1%; inhibition at 1 µM: 67.5%
5 | CS(=O)(=O)NC(=O)c1cc(C2CC2)c(CN2CCN(Cc3cc(Cl)cc(Cl)c3)CC2)cc1F [Compound C11, reference compound] | 23.1% | 51.9% | inhibitory activity against Nav1.7 (in words): significantly reduced
6 | Cc1c(F)c(F)cc(N2CCN(Cc3cc(F)c(C(=O)NS(=O)(=O)C4CC4)cc3Cl)CC2)c1F [Compound Z-182] | 77.2% | 97.6% | –
7 | Cc1cc(N2CCN(Cc3cc(F)c(C(=O)NS(=O)(=O)C4CC4)cc3Cl)CC2)cc(C)c1Cl [Compound Z-185] | 85.3% | 94.9% | –
8 | O=C(NS(=O)(=O)C1CC1)c1cc(Cl)c(OC[C@H]2CCCN2C(=O)c2ccc(Cl)cc2)cc1F [Compound C9, (R)-5-chloro-4-((1-(4-chlorobenzoyl)pyrrolidin-2-yl)methoxy)-N-(cyclopropylsulfonyl), reference compound] | 5.49% | 29.1% | –
9 | Cc1cc(C(=O)N2CCN(Cc3cc(F)c(C(=O)NS(=O)(=O)C4CC4)cc3Cl)CC2)ccc1Cl [Compound C3, reference compound] | 17.6% | 52.3% | –
10 | O=C(NS(=O)(=O)C1CC1)c1cc(C2CC2)c(CN2CCN(Cc3cc(Cl)cc(Cl)c3)CC2)cc1F [Compound C1, reference compound] | – | – | inhibitory activity against Nav1.7 (in words): significantly reduced; inhibition at 0.1 µM: 52%; inhibition at 1 µM: 64%
11 | O=C(NS(=O)(=O)C1CC1)c1cc(Cl)c(CN2CCN(c3ccc(C(F)(F)F)cc3)CC2)cc1F [Compound Z-174] | 78% | 95.1% | –
12 | Cc1cc(N2CCN(Cc3cc(F)c(C(=O)NS(=O)(=O)C4CC4)cc3Cl)CC2)cc(C)c1F [Compound Z-180] | 70.4% | 97.8% | –
13 | Cc1cc(CN2CCN(Cc3cc(F)c(C(=O)NS(=O)(=O)C4CC4)cc3Cl)CC2)ccc1Cl [Compound C4, 5-chloro-4-((4-(4-chloro-3-methylbenzyl)piperazin-1-yl)methyl)-N-(cyclopropylsulfonyl)-2-fluorobenzamide, reference compound] | 18.6% | 58.9% | inhibitory activity against Nav1.7 (in words): significantly reduced
14 | Cc1c(F)ccc(N2CCN(Cc3cc(F)c(C(=O)NS(=O)(=O)C4CC4)cc3Cl)CC2)c1Cl [Compound Z-184] | 70.3% | 98.5% | –
15 | O=C(NS(=O)(=O)C1CC1)c1cc(Cl)c(OC[C@H]2CCCN2c2ccc(C(F)(F)F)cn2)cc1F [Compound Z-150, (R)-5-chloro-N-(cyclopropylsulfonyl)-2-fluoro-4-((1-(5-(trifluoromethyl)pyridin-2-yl)pyrrolidin-2-yl)methoxy)benzamide] | 93.3% | 96.7% | –
16 | CS(=O)(=O)NC(=O)c1cc(C2CC2)c(CN2CCN(Cc3ccc(Cl)c(Cl)c3)CC2)cc1F [Compound C2, reference compound] | 49.2% | 64.8% | inhibitory activity against Nav1.7 (in words): significantly reduced
17 | O=C(NS(=O)(=O)C1CC1)c1cc(Cl)c(OC[C@H]2CCCN2Cc2ccc(C(F)(F)F)cc2)cc1F [Compound C8, (R)-5-chloro-N-(cyclopropylsulfonyl)-2-fluoro-4-((1-(4-(trifluoromethyl)benzyl)pyrrolidin-2-yl)methoxy), reference compound] | 47% | 66.8% | –
18 | CCc1cc(C(=O)NS(=O)(=O)C2CC2)c(F)cc1CN1CCN(c2ccc(Cl)c(Cl)c2)CC1 [Compound Z-191] | 73.3% | 95% | –
19 | O=C(NS(=O)(=O)C1CC1)c1cc(C2CC2)c(OC[C@H]2CCCN2c2ccc(C(F)(F)F)cn2)cc1F [Compound Z-142, (R)-5-cyclopropyl-N-(cyclopropylsulfonyl)-2-fluoro-4-((1-(5-(trifluoromethyl)pyridin-2-yl)pyrrolidin-2-yl)methoxy)benzamide] | 92.2% | 97.8% | –
20 | Cc1c(Cl)ccc(N2CCN(Cc3cc(F)c(C(=O)NS(=O)(=O)C4CC4)cc3Cl)CC2)c1F [Compound Z-188] | 81.8% | 98.1% | –
21 | CCc1cc(C(=O)NS(=O)(=O)C2CC2)c(F)cc1CN1CCN(c2cc(Cl)cc(Cl)c2)CC1 [Compound Z-192] | 77.7% | 98.4% | –
22 | (cyclopropylsulfonyl)-4-((4-(3,4-dichlorophenyl) piperazin-1-yl)methyl)-2-fluorobenzamide [Compound Z-196] | – | – | Inhibition of Nav1.7 100 nM(%) (compound at 100 nM): 85.03%; Inhibition of Nav1.7 1000 nM(%) (compound at 1000 nM): 93.02%
23 | CCc1cc(C(=O)NS(=O)(=O)C2CC2)c(F)cc1CN1CCN(c2ccc(Cl)c(F)c2)CC1 [Compound Z-193] | 72.6% | 95.7% | –
24 | O=C(NS(=O)(=O)C1CC1)c1cc(Cl)c(OC[C@H]2CCCN2C(=O)c2ccc(C(F)(F)F)cc2)cc1F [Compound C10, (R)-5-chloro-N-(cyclopropylsulfonyl)-2-fluoro-4-((1-(4-(trifluoromethyl)benzoyl)pyrrolidin-2-yl)methoxy), reference compound] | 7.83% | 24.7% | –
